Measured values published in publication PMC7703437, “In Vitro Hepatic Metabolism of Curcumin Diethyl Disuccinate by Liver S9 from Different Animal Species” (Frontiers in Pharmacology, 2020).
Like-named read-outs stand apart in the source and are kept apart here. Blank lines part the entries; values can stand above or below the compound they belong to.

Experiments:
[1] = test system: hepatic esterases of HLS9; experiment: Identification of hepatic esterases by chemical inhibition, curcumin formation rate, HLS9; settings: inhibitor 100 μM (EDTA 1 mM), preincubated 30 min at 37°C, HLS9 0.02 mg/ml, CDD 3 µM, 1 min
[2] = test system: hepatic esterases of MLS9; experiment: Identification of hepatic esterases by chemical inhibition, curcumin formation rate, MLS9; settings: inhibitor 100 μM (EDTA 1 mM), preincubated 30 min at 37°C, MLS9 0.02 mg/ml, CDD 3 µM, 0.5 min
[3] = test system: LS9 from all tested species (HLS9, MLS9, DLS9, RLS9); experiment: In vitro metabolism profiling of CDD, statements for LS9 from all tested species; format: in vitro ADME, human, monkey, dog, rat
Protocol: (§1) The metabolism profiles of CDD were investigated against HLS9, MLS9, DLS9, and RLS9. A stock solution of CDD was prepared at 150 µM in 50% acetonitrile in water before use. The metabolism study was initiated by spiking 735 µl of preincubated LS9 with 15 µl of CDD stock solution, and the mixture was subsequently incubated at 37°C. The final concentrations of CDD and LS9 were 3 μM and 1 mg/ml, respectively. A 50-µl aliquot from the mixture was collected at 0.5, 1, 2, 3, 4, 5, 10, 15, 30, 45, 60, 90, and 120 min and immediately mixed with 100 µl of ice-cold acetonitrile containing 0.45 µM of internal standard DMC to terminate the metabolic reaction. […] The sample at the initial time point (0 min) was prepared as the other samples, except that heat-inactivated HLS9, MLS9, DLS9, and RLS9 (80°C for 20 min; 1 mg/ml protein) were used.
(§2) The UHPLC system consisted of an Agilent series 1290 quaternary pump with an online degasser, autosampler, column oven, and diode array detector. The mobile phase was composed of (A) 0.1% (v/v) formic acid in acetonitrile and (B) 0.1% (v/v) formic acid in water. Each solution was filtered through a nylon filter (pore size, 0.22 µm; MS® Membrane Filters; Membrane Solutions, United States) before use. The mobile phase flow rate was kept at 1.2 ml/min in a gradient mode using the following elution program: 0–3.0 min, initial A-B (40:60, v/v); 4.5–7.0 min, isocratic elution A-B [50:50, (v/v); 8.5–11.0 min, isocratic elution A-B (60:40, v/v); and 12.0–17.0 min, isocratic elution A-B (40:60, v/v)]. CDD, curcumin, and MSCUR in the supernatant were partitioned using a C8 column (4.6 mm × 50 mm, 2.7 µm; HALO, Advanced Materials Technology, United States) with reference to DMC. The detection wavelength was set at 400 nm (λ max(CDD) = 400 nm, λ max(curcumin) = 427 nm, λ max(MSCUR) = 418 nm, and λ max(DMC) = 421 nm). The column was maintained at 35°C throughout the run, and the supernatant injection volume was set at 20 µl.
The concentrations of CDD, curcumin, and MSCUR in the supernatant were determined from the standard plots, which were prepared by spiking individual working solutions of the compounds to heat-inactivated HLS9, MLS9, DLS9, and RLS9 ([Alcorn et al., 2007]; [Montoro-Garcia et al., 2009]; [Singh et al., 2010]). […]
The following equations were adopted to describe the changes in CDD and MSCUR content over time (t): A = A0e^−k1t (2) B= k1A0/k2−k1(e^−k1t−e^−k2t), (3) where A0 is the CDD concentration at time 0, k 1 is the degradation rate constant of CDD, and k 2 is the degradation rate constant of MSCUR. k 1 and k 2 were determined by using Eqs. […] The half-life (t 1/2) was calculated using Eq. 4: t1/2=0.693/k (4)

[4] = enzymatic hydrolysis, cited from earlier work
[5] = test system: monkey LS9 (MLS9; cynomolgus); experiment: In vitro metabolism profiling of CDD in monkey liver S9 (1 mg/ml); format: in vitro ADME
Protocol: as §1, §2
(§3) The concentrations of CDD, curcumin, and MSCUR in the supernatant were determined from the standard plots, which were prepared by spiking individual working solutions of the compounds to heat-inactivated HLS9, MLS9, DLS9, and RLS9 ([Alcorn et al., 2007]; [Montoro-Garcia et al., 2009]; [Singh et al., 2010]). These working standards were extracted with 100 µl of ice-cold acetonitrile containing 0.45 µM of DMC and then 120 μl of the supernatant was diluted with 40 μl of water prior to the UHPLC analysis. The peak area ratios of CDD, curcumin, and MSCUR to the internal standard were computed against linear concentration ranges of 0.025–4.5 µM CDD, 0.025–4.5 µM curcumin, and 0.0125–0.75 µM MSCUR, respectively, with the coefficient of determination (r^2) values greater than 0.99.
(§4) The percent content of CDD and the metabolites formed upon its incubation with LS9, namely, curcumin and MSCUR, was plotted against incubation time.
(§5) The following equations were adopted to describe the changes in CDD and MSCUR content over time (t): A = A0e^−k1t (2) B= k1A0/k2−k1(e^−k1t−e^−k2t), (3) where A0 is the CDD concentration at time 0, k 1 is the degradation rate constant of CDD, and k 2 is the degradation rate constant of MSCUR. k 1 and k 2 were determined by using Eqs. 2 and 3, respectively, with nonlinear regression analysis using the SOLVER function of Microsoft Excel for Office 365 MSO (16.0.12527.20986) ([Brown, 2001]). The half-life (t 1/2) was calculated using Eq. 4: t1/2=0.693/k (4)
(§6) The in vitro intrinsic clearance (CLint,in vitro) of CDD and MSCUR in LS9 was calculated using Eq. 5: CLint, in vitro= k × [V]incubation(ml)/[P]incubation(mg protein), (5) where [V]incubation is the incubation volume in ml, and [P]incubation is the amount of LS9. […]

[6] = as above; format: in vitro ADME, monkey (cynomolgus); settings: liver S9; monkey LS9 1 mg/ml; read-out: t 1/2 (MSCUR)
Protocol: as §1, §2, §3, §4, §5, §6

[7] = test system: rat LS9 (RLS9; Sprague–Dawley); experiment: In vitro metabolism profiling of CDD in rat liver S9 (1 mg/ml); format: in vitro ADME
Protocol: as §1, §2, §3, §4, §5, §6

[8] = as above; format: in vitro ADME, rat (Sprague–Dawley); settings: Sprague-Dawley, liver S9; rat LS9 1 mg/ml; read-out: t 1/2 (MSCUR)
Protocol: as §1, §2, §3, §4, §5, §6

human LS9 (HLS9; pooled) = experiment: In vitro metabolism profiling of CDD in human liver S9 (1 mg/ml); format: in vitro ADME
Protocol: as §1, §2, §3, §4, §5, §6

[9] = as above; format: in vitro ADME; settings: pooled liver S9; human LS9 1 mg/ml; read-out: t 1/2 (MSCUR)
Protocol: as §1, §2, §3, §4, §5, §6

dog LS9 (DLS9; beagle) = experiment: In vitro metabolism profiling of CDD in dog liver S9 (1 mg/ml); format: in vitro ADME
Protocol: as §1, §2, §3, §4, §5, §6

[10] = as above; format: in vitro ADME, dog (beagle); settings: beagle, liver S9; dog LS9 1 mg/ml; read-out: t 1/2 (MSCUR)
Protocol: as §1, §2, §3, §4, §5, §6

Compound: CC(C)NP(=O)(NC(C)C)OP(=O)(NC(C)C)NC(C)C [iso-OMPA, tetra(monoisopropyl) pyrophosphortetramide]
inhibition of CDD hydrolysis in HLS9 (relative curcumin formation rate) [1]: to a lesser extent

Compound: C=CC[N+](C)(C)c1ccc(CCC(=O)CCc2ccc([N+](C)(C)CC=C)cc2)cc1.[Br-].[Br-] [1,5-bis(4-allyldimethylammoniumphenyl) pentan-3-one dibromide]
inhibition of CDD hydrolysis in MLS9 (relative curcumin formation rate) [2]: no enzyme inhibitory effects

Compound: curcumin
curcumin (M1) produced ([3]; following 15 min of incubation of CDD 3 µM in each LS9): ~70%

Compound: O=[N+]([O-])c1ccc(OP(=O)(O)Oc2ccc([N+](=O)[O-])cc2)cc1 [BNPP, Bis(4-nitrophenyl) phosphate]
inhibition of CDD hydrolysis in HLS9 (relative curcumin formation rate) [1]: inhibited
inhibition of CDD hydrolysis in MLS9 (relative curcumin formation rate) [2]: inhibited

Compound: COC(=O)[C@H](c1ccccc1Cl)N1CCc2sc(OC(C)=O)cc2C1 [vicagrel]
t 1/2 ([4]; ref Qiu et al., 2016): approximately 1.6 min

CLint, in vitro(MSCUR) of MLS9 higher than that of HLS9 ([5]; MLS9 vs HLS9): ~1.7 fold
CLint, in vitro(MSCUR) ([5]; monkey LS9): 20.79 ± 3.13 ml min^−1 mg protein^−1
k 2 (MSCUR) ([5]; monkey LS9 1 mg/ml, CDD 3 µM, 37°C): 20.79 ± 3.13 min⁻¹
CLint, in vivo(MSCUR) ([5]; monkey, scaled from CLint,in vitro): 4,527.30 ± 682.15 L h^−1 kg^−1
half-life at 3 µM [6]: 2.034 ± 0.00324 s
maximum amount of M2 or MSCUR ([3]; at 0.5 min of incubation of CDD 3 µM in LS9): approximately 10%
CLint, in vitro(MSCUR) of RLS9 lower than that of HLS9 ([7]; RLS9 vs HLS9): 0.8 fold
CLint, in vitro(MSCUR) ([7]; rat LS9): 9.66 ± 0.60 ml min^−1 mg protein^−1
k 2 (MSCUR) ([7]; rat LS9 1 mg/ml, CDD 3 µM, 37°C): 9.66 ± 0.60 min⁻¹
CLint, in vivo(MSCUR) ([7]; rat, scaled from CLint,in vitro): 2,805.37 ± 174.76 L h^−1 kg^−1
half-life at 3 µM [8]: 4.314 ± 0.00264 s
CLint, in vitro(MSCUR) (human LS9 (HLS9; pooled); human LS9): 12.07 ± 0.86 ml min^−1 mg protein^−1
k 2 (MSCUR) (human LS9 (HLS9; pooled); human LS9 1 mg/ml, CDD 3 µM, 37°C): 12.07 ± 0.86 min⁻¹
CLint, in vivo(MSCUR) (human LS9 (HLS9; pooled); human, scaled from CLint,in vitro): 2,251.20 ± 161.06 L h^−1 kg^−1
half-life [9]: 3.456 ± 0.00252 s
CLint, in vitro(MSCUR) of DLS9 higher than that of HLS9 (dog LS9 (DLS9; beagle); DLS9 vs HLS9): approximately two
CLint, in vitro(MSCUR) (dog LS9 (DLS9; beagle); dog LS9): 24.61 ± 2.55 ml min^−1 mg protein^−1
k 2 (MSCUR) (dog LS9 (DLS9; beagle); dog LS9 1 mg/ml, CDD 3 µM, 37°C): 24.61 ± 2.55 min⁻¹
CLint, in vivo(MSCUR) (dog LS9 (DLS9; beagle); dog, scaled from CLint,in vitro): 5,716.98 ± 592.58 L h^−1 kg^−1
half-life at 3 µM [10]: 1.704 ± 0.0018 s
Compound: CCOC(=O)CCC(=O)Oc1ccc(/C=C/C(=O)/C=C(O)/C=C/c2ccc(O)c(OC)c2)cc1OC [MSCUR, monoethylsuccinyl curcumin]

Compound: O=C(O)c1cc(SSc2ccc([N+](=O)[O-])c(C(=O)O)c2)ccc1[N+](=O)[O-] [DTNB, 5,5′-dithiobis (2-nitrobenzoic acid)]
inhibition of CDD hydrolysis in HLS9 (relative curcumin formation rate) [1]: to a lesser extent
inhibition of CDD hydrolysis in MLS9 (relative curcumin formation rate) [2]: no enzyme inhibitory effects

Compound: C[C@@H]1CC[C@@]2(OC1)O[C@H]1[C@@H](O)[C@H]3[C@@H]4CC[C@H]5C[C@@H](O[C@@H]6O[C@H](CO)[C@H](O[C@@H]7O[C@H](CO)[C@@H](O)[C@H](O[C@@H]8OC[C@@H](O)[C@H](O)[C@H]8O)[C@H]7O[C@@H]7O[C@H](CO)[C@H](O)[C@H](O[C@@H]8O[C@H](CO)[C@@H](O)[C@H](O)[C@H]8O)[C@H]7O)[C@H](O)[C@H]6O)[C@H](O)C[C@]5(C)[C@H]4CC[C@]3(C)[C@H]1[C@@H]2C [digitonin]
inhibition of CDD hydrolysis in HLS9 (relative curcumin formation rate) [1]: inhibited

Compound: O=C([O-])c1cc[c]([Hg][OH])cc1.[Na+] [PCMB, 4-(hydroxymercurio) benzoic acid sodium salt]
inhibition of CDD hydrolysis in HLS9 (relative curcumin formation rate) [1]: inhibited
inhibition of CDD hydrolysis in MLS9 (relative curcumin formation rate) [2]: no enzyme inhibitory effects

Compound: CN(C)C(=O)C(CCN1CCC(O)(c2ccc(Cl)cc2)CC1)(c1ccccc1)c1ccccc1 [loperamide]
inhibition of CDD hydrolysis in HLS9 (relative curcumin formation rate) [1]: inhibited

Compound: O=S(=O)(F)Cc1ccccc1 [PMSF, phenylmethylsulfonyl fluoride]
inhibition of CDD hydrolysis in HLS9 (relative curcumin formation rate) [1]: to a lesser extent

Compound: O=C(O)CN(CCN(CC(=O)O)CC(=O)O)CC(=O)O [EDTA, ethylenediaminetetraacetic acid]
inhibition of CDD hydrolysis in MLS9 (relative curcumin formation rate) [2]: no enzyme inhibitory effects

Compound: CC(C)OC(=O)[C@H](C)N[P@](=O)(OC[C@H]1O[C@@](C#N)(c2ccc3c(N)ncnn23)[C@](C)(O)[C@@H]1OC(=O)C(C)C)Oc1ccccc1 [GS-6620]
t 1/2 ([4]; ref Murakami et al., 2014): approximately 4.0 min
